Measured values from ChEMBL document CHEMBL1152156, “A bulge binding agent with novel wedge-shape topology for stimulation of DNA triplet repeat strand slippage synthesis” (Bioorg Med Chem Lett, 2008).
Active and inactive are the calls of the source. No cut-off for these calls is given here.

How the values were obtained:
[1] = Stimulation of DNA triplet repeat slippage synthesis using p33-labeled (ATT)3 and unlabeled (AAT)5 template assessed as number of base pairs at 400 uM
[2] = Binding affinity to ATT-bulge-DNA by surface plasmon resonance based assay
[3] = Binding affinity to hairpin DNA by surface plasmon resonance based assay
[4] = Stimulation of DNA triplet repeat slippage synthesis using p33-labeled (ATT)3 and unlabeled (AAT)5 template assessed as number of base pairs at 200 uM
[5] = Stimulation of DNA triplet repeat slippage synthesis using p33-labeled (ATT)3 and unlabeled (AAT)5 template assessed as number of base pairs at 50 uM
[6] = Binding affinity to double strand DNA by surface plasmon resonance based assay
[7] = Stimulation of DNA triplet repeat slippage synthesis using p33-labeled (ATT)3 and unlabeled (AAT)5 template at 100 uM in presence of doxorubicin
[8] = Stimulation of DNA triplet repeat slippage synthesis using p33-labeled (ATT)3 and unlabeled (AAT)5 template assessed as number of base pairs at 100 uM
[9] = Stimulation of DNA triplet repeat slippage synthesis using p33-labeled (ATT)3 and unlabeled (AAT)5 template assessed as number of base pairs

SMILES | Activity [1] | Ki [2] [µM] | Kd [3] [µM] | Activity [4] | Activity [5] | Kd [6] [µM] | Activity [7] | Activity [8] | Activity [9] | Activity [2]
OC[C@H]1O[C@@H](OCCN2c3ccccc3Sc3ccccc32)[C@H](O)[C@@H](O)[C@@H]1O | 71 | 41.5 | 140 | 32 | 18 | 170 | inactive | 20 |  | 
N[C@H]1[C@H](O[C@H]2C[C@H]3C(=O)c4cc5ccccc5cc4[C@H]3[C@@]23C(=O)CCc2ccccc23)O[C@H](CO)[C@@H](O)[C@@H]1O |  |  |  |  |  |  |  |  | Active | 
c1ccc2c(c1)Nc1ccccc1S2 |  |  |  |  |  |  |  |  | inactive | inactive
